Measured values reported in ChEMBL document CHEMBL5154846, “Adjusted degradation of BRD4 S and BRD4 L based on fine structural modifications of the pyrrolopyridone scaffold” (Eur J Med Chem, 2022).
Calls of active or inactive are those of the source. No cut-off for these calls is given here.

Tests used:
[1] = target: Bromodomain-containing protein 2 (Homo sapiens) (UniProt P25440); assay: Protac activity at BRD2 in human MV4-11 cells at 100 nM measured after 24 hrs by immunoblot analysis; type: cell-based
[2] = target: Bromodomain-containing protein 3 (Homo sapiens) (UniProt Q15059); assay: Protac activity at BRD3 in human MV4-11 cells at 100 nM measured after 24 hrs by immunoblot analysis; type: cell-based
[3] = target: T1, Bromodomain-containing protein 4 (Homo sapiens, UniProt O60885); assay: Inhibition of BRD4-BD2 (unknown origin) preincubated for 30 mins followed by substrate addition and measured after 3 hr by HTRF
[4] = target: T1, Bromodomain-containing protein 4; assay: Protac activity at BRD4 short isoform in human MV4-11 cells at 100 nM for 12 hrs by immunoblot analysis; type: cell-based
[5] = target: Bromodomain-containing protein 3 (Homo sapiens) (UniProt Q15059); assay: Protac activity at BRD3 in human MV4-11 cells at 100 nM measured after 4 hrs by immunoblot analysis; type: cell-based
[6] = target: Bromodomain-containing protein 2 (Homo sapiens) (UniProt P25440); assay: Protac activity at BRD2 in human MV4-11 cells at 100 nM measured after 4 hrs by immunoblot analysis; type: cell-based
[7] = target: T1, Bromodomain-containing protein 4; assay: Protac activity at BRD4 short isoform in human MV4-11 cells at 100 nM for 24 hrs by immunoblot analysis; type: cell-based
[8] = target: T1, Bromodomain-containing protein 4; assay: Inhibition of BRD4-BD1 (unknown origin) preincubated for 30 mins followed by substrate addition and measured after 3 hr by HTRF assay
MV4-11 [9] = assay: Cell cycle arrest in human MV4-11 cells assessed as accumulation at G2/M phase at 0.1 uM for 24 hrs by PI/RNase staining based flow cytometry analysis; type: functional
MV4-11 [10] = assay: Antiproliferative activity against human MV4-11 cells incubated for 72 hrs by CCK8 assay; type: functional, cell-based; details: MV4-11, 72 h
MV4-11 [11] = assay: Anti-proliferative activity in human MV4-11 cells assessed as downregulation of c-myc levels at 100 nM incubated for 24 hrs by western blot analysis; type: functional, cell-based
MV4-11 [12] = assay: Anti-proliferative activity in human MV4-11 cells assessed as downregulation of c-myc levels at 10 to 1000 nM incubated for 4 hrs by western blot analysis; type: functional, cell-based; details: dose 10-1000 nM

Sequence of Bromodomain-containing protein 3 (Homo sapiens) (Q15059 2-726 limits assumed): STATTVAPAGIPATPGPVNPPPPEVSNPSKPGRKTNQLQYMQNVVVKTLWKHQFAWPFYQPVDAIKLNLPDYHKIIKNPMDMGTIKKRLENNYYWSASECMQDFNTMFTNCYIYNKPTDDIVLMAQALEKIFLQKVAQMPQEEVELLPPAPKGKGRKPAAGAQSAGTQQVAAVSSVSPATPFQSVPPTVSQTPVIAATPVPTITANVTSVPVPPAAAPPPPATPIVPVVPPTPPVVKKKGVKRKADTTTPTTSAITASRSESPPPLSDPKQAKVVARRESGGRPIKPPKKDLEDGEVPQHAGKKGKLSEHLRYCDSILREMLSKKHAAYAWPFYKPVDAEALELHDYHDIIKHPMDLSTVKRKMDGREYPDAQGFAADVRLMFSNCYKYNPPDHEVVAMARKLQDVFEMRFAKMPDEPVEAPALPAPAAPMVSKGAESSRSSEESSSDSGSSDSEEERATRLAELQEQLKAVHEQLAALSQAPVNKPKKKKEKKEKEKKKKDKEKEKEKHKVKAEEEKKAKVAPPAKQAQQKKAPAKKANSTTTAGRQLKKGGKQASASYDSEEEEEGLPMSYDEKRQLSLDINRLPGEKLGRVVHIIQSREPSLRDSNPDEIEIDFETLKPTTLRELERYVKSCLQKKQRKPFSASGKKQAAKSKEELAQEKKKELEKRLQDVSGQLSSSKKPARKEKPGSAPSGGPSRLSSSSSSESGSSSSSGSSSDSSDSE
Sequence of Bromodomain-containing protein 2 (Homo sapiens) (P25440 whole entry, looked up, canonical isoform): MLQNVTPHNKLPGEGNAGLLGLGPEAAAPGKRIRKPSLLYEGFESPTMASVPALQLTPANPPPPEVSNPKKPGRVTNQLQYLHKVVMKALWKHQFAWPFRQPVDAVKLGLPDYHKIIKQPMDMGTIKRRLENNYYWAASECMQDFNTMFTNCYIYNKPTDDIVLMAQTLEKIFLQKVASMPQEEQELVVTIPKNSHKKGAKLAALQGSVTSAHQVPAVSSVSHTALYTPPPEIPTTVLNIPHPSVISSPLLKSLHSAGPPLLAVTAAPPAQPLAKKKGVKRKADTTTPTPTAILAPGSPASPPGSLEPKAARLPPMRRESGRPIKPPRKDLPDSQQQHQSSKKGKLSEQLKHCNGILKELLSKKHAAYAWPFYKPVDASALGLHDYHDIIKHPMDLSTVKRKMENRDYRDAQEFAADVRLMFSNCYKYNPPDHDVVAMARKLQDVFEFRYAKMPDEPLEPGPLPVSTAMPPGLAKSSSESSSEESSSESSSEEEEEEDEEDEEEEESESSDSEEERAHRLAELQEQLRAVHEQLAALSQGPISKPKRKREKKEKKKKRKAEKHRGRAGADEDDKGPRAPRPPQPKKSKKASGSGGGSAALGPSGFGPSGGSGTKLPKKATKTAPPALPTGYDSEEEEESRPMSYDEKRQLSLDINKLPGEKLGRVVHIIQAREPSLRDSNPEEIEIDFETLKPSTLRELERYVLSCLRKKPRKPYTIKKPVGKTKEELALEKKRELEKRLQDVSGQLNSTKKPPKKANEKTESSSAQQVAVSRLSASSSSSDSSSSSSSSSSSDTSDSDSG

| SMILES | Activity [1] | Activity [2] | IC50 [3] [nM] | Activity [4] | Activity [5] | Activity [6] | Activity [7] | IC50 [8] [nM] | Activity (MV4-11 [9]) | IC50 (MV4-11 [10]) [nM] | Activity (MV4-11 [11]) | Activity (MV4-11 [12]) |
| --- | --- | --- | --- | --- | --- | --- | --- | --- | --- | --- | --- | --- |
| Cn1cc(-c2ccccc2Oc2ccccc2)c2cc(C(=O)NCc3ccc(C(=O)NCCCCNc4cccc5c4C(=O)N(C4CCC(=O)NC4=O)C5=O)cc3)[nH]c2c1=O (stereo unspecified) | Active | Active | 27.2 | Active | Active | Active | Active | 34.6 |  |  |  |  |
| Cn1cc(-c2ccccc2Oc2ccccc2)c2cc(C(=O)NCCCCCCNc3cccc4c3C(=O)N(C3CCC(=O)NC3=O)C4=O)[nH]c2c1=O (stereo unspecified) | Active | Active | 39.4 |  | Active | Active | Active | 441 |  |  |  |  |
| C=C(C)c1ccc(Oc2ccccc2)c(-c2cn(C)c(=O)c3[nH]c(C(=O)NCc4ccc(C(=O)NCCCCNc5cccc6c5C(=O)N(C5CCC(=O)NC5=O)C6=O)cc4)cc23)c1 (stereo unspecified) |  |  | 74.1 |  |  |  | Active | 241 |  |  |  |  |
| COc1cc(C(=O)NCCOCCOCCOCCNC(=O)C[C@@H]2N=C(c3ccc(Cl)cc3)c3c(sc(C)c3C)-n3c(C)nnc32)ccc1NC(=O)[C@@H]1N[C@@H](CC(C)(C)C)[C@](C#N)(c2ccc(Cl)cc2F)[C@H]1c1cccc(Cl)c1F |  |  |  |  |  |  | Active |  |  |  |  |  |
| Cn1cc(-c2ccccc2Oc2ccccc2)c2cc(C(=O)NCCCCNc3cccc4c3C(=O)N(C3CCC(=O)NC3=O)C4=O)[nH]c2c1=O (stereo unspecified) | Active | Active | 84.9 |  | Active | Active | Active | 472 |  |  |  |  |
| Cc1sc2c(c1C)C(c1ccc(Cl)cc1)=N[C@@H](CC(=O)NCCCCCCCCNC(=O)COc1cccc3c1C(=O)N(C1CCC(=O)NC1=O)C3=O)c1nnc(C)n1-2 (stereo partly specified) | Active | Active |  |  | Active | Active |  |  | Active | 10.3 | Active | Active |
| CC(C)Oc1ccc(C(C)(C)O)cc1-c1cn(C)c(=O)c2[nH]c(C(=O)NCc3ccc(C(=O)NCCCCNc4cccc5c4C(=O)N(C4CCC(=O)NC4=O)C5=O)cc3)cc12 (stereo unspecified) |  |  | 13.9 |  |  |  |  | 24.6 |  |  |  |  |
| C=C(C)c1ccc(OC(C)C)c(-c2cn(C)c(=O)c3[nH]c(C(=O)NCc4ccc(C(=O)NCCCCNc5cccc6c5C(=O)N(C5CCC(=O)NC5=O)C6=O)cc4)cc23)c1 (stereo unspecified) |  |  | 101 |  |  |  | Active | 119 |  |  |  |  |
| Cn1cc(-c2ccccc2Oc2ccccc2)c2cc(C(=O)NCCCCCC(=O)NCCCCNc3cccc4c3C(=O)N(C3CCC(=O)NC3=O)C4=O)[nH]c2c1=O (stereo unspecified) | Active | Active | 38.8 |  | Active | Active | Active | 278 |  |  |  |  |
| Cn1cc(-c2cc(C(C)(C)O)ccc2Oc2ccccc2)c2cc(C(=O)NCc3ccc(C(=O)NCCCCNc4cccc5c4C(=O)N(C4CCC(=O)NC4=O)C5=O)cc3)[nH]c2c1=O (stereo unspecified) |  |  | 3.82 |  |  |  |  | 29.5 |  |  |  |  |
| Cn1cc(-c2cc(C(C)(C)O)ccc2OC2CC2)c2cc(C(=O)NCc3ccc(C(=O)NCCCCNc4cccc5c4C(=O)N(C4CCC(=O)NC4=O)C5=O)cc3)[nH]c2c1=O (stereo unspecified) |  |  | 7.79 |  |  |  |  | 22.7 |  |  |  |  |
| Cn1cc(-c2cccc(C(C)(C)O)c2)c2cc(C(=O)NCc3ccc(C(=O)NCCCCNc4cccc5c4C(=O)N(C4CCC(=O)NC4=O)C5=O)cc3)[nH]c2c1=O (stereo unspecified) |  |  | 73 |  |  |  |  | 45.4 |  |  |  |  |
| Cn1cc(-c2ccccc2Oc2ccccc2)c2cc(C(=O)NCCCCCCC(=O)NCCCCNc3cccc4c3C(=O)N(C3CCC(=O)NC3=O)C4=O)[nH]c2c1=O (stereo unspecified) | Active | Active | 35.7 |  | Active | Active | Active | 332 |  |  |  |  |
| CCNC(=O)c1cc2c(-c3cc(C(C)(C)O)ccc3Oc3c(C)cc(F)cc3C)cn(C)c(=O)c2[nH]1 [ABBV-744] |  |  |  |  |  |  |  |  |  | 153 |  |  |
| Cn1cc(-c2ccccc2Oc2ccccc2)c2cc(C(=O)NCCCCC(=O)NCCCCNc3cccc4c3C(=O)N(C3CCC(=O)NC3=O)C4=O)[nH]c2c1=O (stereo unspecified) | Active | Active | 24.3 |  | Active | Active | Active | 185 |  |  |  |  |
| Cn1cc(-c2ccccc2)c2cc(C(=O)NCc3ccc(C(=O)NCCCCNc4cccc5c4C(=O)N(C4CCC(=O)NC4=O)C5=O)cc3)[nH]c2c1=O (stereo unspecified) |  |  | 296 |  |  |  |  | 99.8 |  |  |  |  |
| Cn1cc(-c2ccccc2OC2CC2)c2cc(C(=O)NCc3ccc(C(=O)NCCCCNc4cccc5c4C(=O)N(C4CCC(=O)NC4=O)C5=O)cc3)[nH]c2c1=O (stereo unspecified) |  |  | 96.4 | Active |  |  | Active | 54.3 |  |  |  |  |
| CC(C)Oc1ccccc1-c1cn(C)c(=O)c2[nH]c(C(=O)NCc3ccc(C(=O)NCCCCNc4cccc5c4C(=O)N(C4CCC(=O)NC4=O)C5=O)cc3)cc12 (stereo unspecified) |  |  | 91.5 |  |  |  | Active | 83.7 |  |  |  |  |
